Reference: patent publication US20230212549A1, “COMPOUNDS COMPRISING A […] LIGAND AND USE THEREOF” (priority 2021, published 2023)
pIC50, pKd: −log10 of the molar value. Numbered stars: 1 amine (or outer) side, 2 acyl side, 3 side chain; on linkers, the order of the positions; unused ones are H or OH. Bridge positions count the residues as written; N and C are the ends. Square brackets hold non-standard residues; d marks the D form. Peptide text beside a SMILES is read from it. * marks the point of attachment. X13 = O=C(O)CN1CCN(CC(=O)O)CCN(CC(=O)N2CCN(Cc3cc(C[*:1])cc(C[*:2])c3)CC2)CCN(CC(=O)O)CC1; X12 = O=C(O)CN1CCN(CC(=O)O)CCN(CC(=O)NCCCOCCOCCOCCCN*)CCN(CC(=O)O)CC1; mXylylene = c1cc(C[*:1])cc(C[*:2])c1; Suc = O=C(CCC(=O)[*:2])[*:1]; Nle = CCCC[C@H](N)C(=O)O; Hexanoyl = CCCCCC(=O)*; Mpa = O=C(O)CCS

How the values were obtained:
[1] = Plasma stability assay, mouse plasma; type: in vitro ADME; conditions: 37° C.
[2] = biological target: T1, FAP-expressing human WI-38 fibroblasts (Homo sapiens, UniProt Q12884); experiment: Competitive FACS binding assay
T1 construct: FAP-expressing human WI-38 fibroblasts (ECACC) were cultured in EMEM; host or cells: WI-38 human fibroblasts
Experimental: Cells were analyzed in an Attune NxT flow cytometer. […] […].
Cells were analyzed in an Attune NxT flow cytometer. […]

Human recombinant FAP [3] = biological target: T2, Human recombinant FAP (Homo sapiens, UniProt Q12884); experiment: Surface plasmon resonance (Biacore) assay; type: binding
recombinant human PREP = biological target: T3, recombinant human PREP (Homo sapiens, UniProt P48147); experiment: PREP protease activity assay; type: biochemical
T3 construct: purchased R&D systems 4308-SE
T3 sequence (P48147 1-710): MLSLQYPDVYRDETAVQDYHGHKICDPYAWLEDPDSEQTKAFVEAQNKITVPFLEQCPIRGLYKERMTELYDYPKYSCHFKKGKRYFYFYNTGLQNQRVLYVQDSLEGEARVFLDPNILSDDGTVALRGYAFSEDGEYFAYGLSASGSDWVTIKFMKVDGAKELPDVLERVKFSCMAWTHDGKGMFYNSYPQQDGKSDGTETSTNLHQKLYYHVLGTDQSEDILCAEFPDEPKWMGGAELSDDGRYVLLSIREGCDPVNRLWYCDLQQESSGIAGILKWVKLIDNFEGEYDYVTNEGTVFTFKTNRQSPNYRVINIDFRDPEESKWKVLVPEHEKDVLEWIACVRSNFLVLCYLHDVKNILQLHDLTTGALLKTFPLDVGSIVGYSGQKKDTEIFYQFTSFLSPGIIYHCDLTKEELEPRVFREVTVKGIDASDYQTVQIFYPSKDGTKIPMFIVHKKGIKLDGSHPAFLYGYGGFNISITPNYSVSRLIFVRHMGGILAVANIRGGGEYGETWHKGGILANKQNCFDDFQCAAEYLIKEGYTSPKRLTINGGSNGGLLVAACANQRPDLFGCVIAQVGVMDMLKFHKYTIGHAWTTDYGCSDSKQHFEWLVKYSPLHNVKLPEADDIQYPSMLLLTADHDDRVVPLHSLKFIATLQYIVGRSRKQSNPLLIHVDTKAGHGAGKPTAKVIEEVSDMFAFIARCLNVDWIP

Recombinant human DPP4 = biological target: T4, Recombinant human DPP4 (Homo sapiens, UniProt P27487); experiment: DPP4 protease activity assay; type: biochemical
T4 construct: purchased R&D systems 9168-SE

Human recombinant FAP [4] = biological target: T2, Human recombinant FAP; experiment: FRET-based FAP protease activity assay; type: biochemical; parameters: purchased R&D systems 3715-SE
[5] = 24 h incubation, 37° C.
[6] = 24 h incubation, 37° C.; remark: listed apart in the source
[7] = biological target: Ca2+ channel (L, dihydropyridine site) (Rattus norvegicus, UniProt P22002); experiment: biochemical; conditions: read-out: % Inhibition of Specific Binding
[8] = Pharmacokinetic study in mice (plasma, NCA); conditions: mouse, intravenous; for Vd: mouse plasma
[9] = Pharmacokinetic study in rats (plasma, NCA); conditions: rat, intravenous; for Vd: rat plasma
HEK-FAP tumors = experiment: Efficacy study, HEK-FAP tumor model; conditions: throughout the study, 30 or 60 MBq
Sarc4809 PDX tumors = experiment: Efficacy study, sarcoma Sarc4809 PDX model; conditions: throughout the study, 30 or 60 MBq
[10] = pIC50 Category (Activity), FRET-based FAP protease activity assay, recombinant human FAP, 37° C.

T4 sequence (P27487 whole entry): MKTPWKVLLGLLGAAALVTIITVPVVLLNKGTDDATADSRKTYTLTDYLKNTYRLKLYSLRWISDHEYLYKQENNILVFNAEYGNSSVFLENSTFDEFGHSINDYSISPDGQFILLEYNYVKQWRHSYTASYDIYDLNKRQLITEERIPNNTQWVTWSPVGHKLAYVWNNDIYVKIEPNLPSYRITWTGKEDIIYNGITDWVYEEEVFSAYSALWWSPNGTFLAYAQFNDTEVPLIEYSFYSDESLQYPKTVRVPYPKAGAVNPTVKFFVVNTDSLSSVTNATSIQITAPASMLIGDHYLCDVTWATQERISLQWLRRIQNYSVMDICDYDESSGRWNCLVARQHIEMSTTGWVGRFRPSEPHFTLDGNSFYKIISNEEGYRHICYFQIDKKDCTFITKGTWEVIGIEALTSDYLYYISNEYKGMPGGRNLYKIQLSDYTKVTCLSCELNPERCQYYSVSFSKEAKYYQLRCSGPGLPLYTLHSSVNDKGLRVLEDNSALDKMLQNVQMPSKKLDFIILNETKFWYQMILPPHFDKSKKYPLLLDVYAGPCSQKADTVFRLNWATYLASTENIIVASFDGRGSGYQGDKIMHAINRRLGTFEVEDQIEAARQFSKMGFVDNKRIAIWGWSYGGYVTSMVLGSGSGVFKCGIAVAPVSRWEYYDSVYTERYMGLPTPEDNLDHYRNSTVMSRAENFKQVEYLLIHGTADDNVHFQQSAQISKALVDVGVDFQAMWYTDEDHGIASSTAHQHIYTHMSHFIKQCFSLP
T2 sequence (Q12884 whole entry): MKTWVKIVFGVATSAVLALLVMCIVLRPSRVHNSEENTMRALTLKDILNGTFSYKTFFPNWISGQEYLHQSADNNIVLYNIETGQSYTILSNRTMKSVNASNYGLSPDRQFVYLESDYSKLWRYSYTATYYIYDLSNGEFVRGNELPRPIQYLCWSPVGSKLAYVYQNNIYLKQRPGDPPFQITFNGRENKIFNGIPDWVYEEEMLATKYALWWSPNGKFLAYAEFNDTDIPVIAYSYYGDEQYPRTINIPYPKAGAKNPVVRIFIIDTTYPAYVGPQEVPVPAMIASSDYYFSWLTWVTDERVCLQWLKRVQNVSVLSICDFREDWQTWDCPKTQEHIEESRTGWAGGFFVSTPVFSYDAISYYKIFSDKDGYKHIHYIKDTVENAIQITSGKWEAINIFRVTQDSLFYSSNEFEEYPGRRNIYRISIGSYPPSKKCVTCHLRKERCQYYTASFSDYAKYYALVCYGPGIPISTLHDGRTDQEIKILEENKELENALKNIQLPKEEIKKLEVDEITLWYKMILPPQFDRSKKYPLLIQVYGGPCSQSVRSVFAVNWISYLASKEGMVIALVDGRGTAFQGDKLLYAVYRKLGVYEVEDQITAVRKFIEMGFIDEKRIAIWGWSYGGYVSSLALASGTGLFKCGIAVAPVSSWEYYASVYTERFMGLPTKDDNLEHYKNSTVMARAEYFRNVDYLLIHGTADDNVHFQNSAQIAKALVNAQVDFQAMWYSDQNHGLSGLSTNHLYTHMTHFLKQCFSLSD
T1 sequence (Q12884 whole entry): as above
Sequence of Ca2+ channel (L, dihydropyridine site) (P22002 whole entry): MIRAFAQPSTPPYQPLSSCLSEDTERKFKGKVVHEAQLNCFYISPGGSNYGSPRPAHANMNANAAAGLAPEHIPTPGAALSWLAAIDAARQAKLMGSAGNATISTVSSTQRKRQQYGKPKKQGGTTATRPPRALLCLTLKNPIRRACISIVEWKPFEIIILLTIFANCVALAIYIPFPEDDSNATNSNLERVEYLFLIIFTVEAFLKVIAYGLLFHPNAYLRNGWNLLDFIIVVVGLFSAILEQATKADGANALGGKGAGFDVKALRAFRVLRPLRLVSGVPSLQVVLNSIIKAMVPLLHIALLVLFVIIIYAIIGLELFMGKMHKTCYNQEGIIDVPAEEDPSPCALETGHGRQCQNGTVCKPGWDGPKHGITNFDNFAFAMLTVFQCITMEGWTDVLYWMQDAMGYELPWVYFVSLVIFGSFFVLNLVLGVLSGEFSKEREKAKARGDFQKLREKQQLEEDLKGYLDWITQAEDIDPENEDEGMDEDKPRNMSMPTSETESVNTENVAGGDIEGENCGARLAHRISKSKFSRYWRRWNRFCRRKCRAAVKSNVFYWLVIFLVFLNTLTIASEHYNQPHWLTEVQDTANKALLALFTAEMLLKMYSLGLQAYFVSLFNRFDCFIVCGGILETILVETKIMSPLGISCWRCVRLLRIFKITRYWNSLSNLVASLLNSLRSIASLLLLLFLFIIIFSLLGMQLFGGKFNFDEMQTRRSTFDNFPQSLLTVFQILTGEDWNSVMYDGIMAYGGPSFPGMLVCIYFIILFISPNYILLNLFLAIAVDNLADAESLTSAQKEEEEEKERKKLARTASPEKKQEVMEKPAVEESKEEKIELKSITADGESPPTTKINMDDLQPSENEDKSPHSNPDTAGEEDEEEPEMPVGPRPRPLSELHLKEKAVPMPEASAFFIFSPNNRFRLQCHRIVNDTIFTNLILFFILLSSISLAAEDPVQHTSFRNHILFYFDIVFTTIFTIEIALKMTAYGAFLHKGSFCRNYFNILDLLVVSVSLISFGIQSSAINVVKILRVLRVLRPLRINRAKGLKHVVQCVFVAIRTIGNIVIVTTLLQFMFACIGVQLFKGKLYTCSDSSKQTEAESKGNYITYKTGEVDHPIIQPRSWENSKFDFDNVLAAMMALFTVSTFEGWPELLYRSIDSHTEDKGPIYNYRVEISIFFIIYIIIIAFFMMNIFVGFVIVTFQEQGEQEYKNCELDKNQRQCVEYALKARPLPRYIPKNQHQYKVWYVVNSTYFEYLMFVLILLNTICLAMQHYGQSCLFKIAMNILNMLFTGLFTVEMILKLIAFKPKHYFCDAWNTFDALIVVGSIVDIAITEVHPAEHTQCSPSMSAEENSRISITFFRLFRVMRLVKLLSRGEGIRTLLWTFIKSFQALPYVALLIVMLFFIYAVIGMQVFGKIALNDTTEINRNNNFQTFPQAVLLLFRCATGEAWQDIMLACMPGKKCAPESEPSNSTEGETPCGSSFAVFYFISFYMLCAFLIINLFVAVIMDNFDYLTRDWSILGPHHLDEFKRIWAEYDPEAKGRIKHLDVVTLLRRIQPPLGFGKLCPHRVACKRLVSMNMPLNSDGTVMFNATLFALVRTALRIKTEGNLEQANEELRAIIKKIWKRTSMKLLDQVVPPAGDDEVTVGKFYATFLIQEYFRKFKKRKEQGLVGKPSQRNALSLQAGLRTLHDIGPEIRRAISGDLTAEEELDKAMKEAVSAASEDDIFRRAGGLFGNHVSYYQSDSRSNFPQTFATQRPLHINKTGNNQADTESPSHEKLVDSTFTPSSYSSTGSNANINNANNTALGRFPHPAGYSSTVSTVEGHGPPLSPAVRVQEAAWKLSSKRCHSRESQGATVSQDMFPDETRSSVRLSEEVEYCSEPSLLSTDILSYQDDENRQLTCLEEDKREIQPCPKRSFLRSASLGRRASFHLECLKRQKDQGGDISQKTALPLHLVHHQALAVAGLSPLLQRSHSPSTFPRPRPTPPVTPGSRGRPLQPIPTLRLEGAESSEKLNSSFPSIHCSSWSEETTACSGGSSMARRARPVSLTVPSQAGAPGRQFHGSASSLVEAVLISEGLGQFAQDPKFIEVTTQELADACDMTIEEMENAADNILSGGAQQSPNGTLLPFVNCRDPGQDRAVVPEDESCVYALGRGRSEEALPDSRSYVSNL

Compound: CCCC[C@H](NC(=O)CCC(=O)NCCCOCCOCCOCCCNC(=O)CN1CCN(CC(=O)O)CCN(CC(=O)O)CCN(CC(=O)O)CC1)C(=O)N[C@H]1CSCc2cccc(c2)CSC[C@@H](C(=O)N[C@@H](CC(=O)O)C(=O)N[C@@H](Cc2c[nH]cn2)C(=O)N[C@@H](Cc2ccccc2)C(=O)N[C@@H](CCCNC(=N)N)C(=O)N[C@@H](CC(=O)O)C(N)=O)NC(=O)[C@H](Cc2ccccc2)NC(=O)[C@H](CCC(=O)O)NC(=O)[C@H]([C@@H](C)O)NC(=O)[C@@H]2CCCN2C(=O)[C@@H]2CCCN2C1=O [3BP-3168, DOTA-Ttds-Nle-[Cys(3MeBn)-Pro-Pro-Thr-Glu-Phe-Cys]-Asp-His-Phe-Arg-Asp-NH2] ({X12-Suc}-[Nle]CPPTEFCDHFRD-NH2; linker 2-8 via mXylylene)
- remaining at 4 h, 9.8 µM ([1]; mouse, plasma, 4 h incubation, read-out: % intact compound remaining after incubation, Mouse plasma): 100%
- pIC50 [2]: > 8.00
- pKd (Human recombinant FAP [3]): > 8.00
- pIC50 (recombinant human PREP): < 6.00
- pIC50 (Recombinant human DPP4): < 6.00
- pIC50 (Human recombinant FAP [4]; pIC50 (highest activity categories), text on Table 9 categories (FACS binding and FAP activity assay)): > 8.00
- pIC50 (Human recombinant FAP [4]; [10]): > 8.00

Compound: CCCC[C@H](NC(=O)CCC(=O)NCCCOCCOCCOCCCNC(=O)CN1CCN(CC(=O)O)CCN(CC(=O)O)CCN(CC(=O)O)CC1)C(=O)N[C@H]1CSCc2cccc(c2)CSC[C@@H](C(=O)N[C@@H](CC(=O)O)C(N)=O)NC(=O)[C@H](Cc2ccccc2)NC(=O)[C@H](CCC(=O)O)NC(=O)[C@H]([C@@H](C)O)NC(=O)[C@@H]2CCCN2C(=O)[C@@H]2CCCN2C1=O [3BP-3320, DOTA-Ttds-Nle-[Cys(3MeBn)-Pro-Pro-Thr-Glu-Phe-Cys]-Asp-NH2] ({X12-Suc}-[Nle]CPPTEFCD-NH2; linker 2-8 via mXylylene)
- % intact compound remaining after incubation, Mouse plasma ([1]; 4 h incubation): 75%
- pIC50 [2]: 7.10 to 8.00
- pKd (Human recombinant FAP [3]): > 8.00
- pIC50 (recombinant human PREP): < 6.00
- pIC50 (Recombinant human DPP4): < 6.00
- pIC50 (Human recombinant FAP [4]; [10]): > 8.00

Compound: CCCCCC(=O)N[C@H]1CSCc2cc(cc(CN3CCN(C(=O)CN4CCN(CC(=O)O)CCN(CC(=O)O)CCN(CC(=O)O)CC4)CC3)c2)CSC[C@@H](C(=O)N[C@@H](CC(=O)O)C(N)=O)NC(=O)[C@H](Cc2ccccc2)NC(=O)[C@H](CCC(N)=O)NC(=O)[C@H]([C@@H](C)O)NC(=O)[C@@H]2CCCN2C(=O)[C@@H]2CCCN2C1=O [3BP-3407, Hex-[Cys(tMeBn(DOTA-PP))-Pro-Pro-Thr-Gln-Phe-Cys]-Asp-NH2] (Hexanoyl-CPPTQFCD-NH2; linker 1-7 via X13)
- % intact compound remaining after incubation, Human plasma [5]: 100% (24 h)
- % intact compound remaining after incubation, Rat plasma [6]: 100% (24 h)
- inhibition at 10 µM [7]: 42%

Compound: C[C@@H](O)[C@@H]1NC(=O)[C@@H]2CCCN2C(=O)[C@@H]2CCCN2C(=O)CCSCc2cccc(c2)CSC[C@@H](C(=O)N[C@@H](CC(=O)O)C(N)=O)NC(=O)[C@H](Cc2ccccc2)NC(=O)[C@H](CCC(N)=O)NC1=O [3BP-3419, [3MeBn-Spa-Pro-Pro-Thr-Gln-Phe-Cys]-Asp-NH2] ([Mpa]PPTQFCD-NH2; linker 1-7 via mXylylene)
- pIC50 [2]: 6.10 to 7.00
- pIC50 (recombinant human PREP): < 6.00
- pIC50 (Recombinant human DPP4): < 6.00
- pIC50 (Human recombinant FAP [4]; [10]): 6.10 to 7.00

Compound: CCCCCC(=O)N[C@H]1CSCc2cc(CSCCNC(=O)CN3CCN(CC(=O)O)CCN(CC(=O)O)CCN(CC(=O)O)CC3)cc(c2)CSC[C@@H](C(=O)O)NC(=O)[C@H](Cc2ccccc2)NC(=O)[C@H](CCC(N)=O)NC(=O)[C@H]([C@@H](C)O)NC(=O)[C@@H]2CCCN2C(=O)[C@@H]2CCCN2C1=O [3BP-3554, Hex-[Cys(tMeBn(DOTA-AET))-Pro-Pro-Thr-Gln-Phe-Cys]-OH]
- % intact compound remaining after incubation, Human plasma [5]: 100% (24 h)
- % intact compound remaining after incubation, Rat plasma [6]: 100% (24 h)
- inhibition at 10 µM [7]: 54%

Compound: CCCCCC(=O)N[C@H]1CSCc2cc(cc(CN3CCN(C(=O)CN4CCN(CC(=O)O)CCN(CC(=O)O)CCN(CC(=O)O)CC4)CC3)c2)CSC[C@@H](C(=O)N[C@@H](CC(=O)O)C(N)=O)NC(=O)[C@H](Cc2ccccc2)NC(=O)[C@H](CCC(N)=O)NC(=O)[C@H]([C@@H](C)O)NC(=O)[C@@H]2CCCN2C(=O)[C@@H]2CCCN2C1=O [3BP-3590, Hex-[Cys(tMeBn(InDOTA-PP))-Pro-Pro-Thr-Gln-Phe-Cys]-Asp-NH2] (Hexanoyl-CPPTQFCD-NH2; linker 1-7 via X13)
- remaining at 24 h, 9.8 µM ([1]; mouse, plasma, 24 h incubation, read-out: % intact compound remaining after incubation, Mouse plasma): 100%
- % intact compound remaining after incubation, Human plasma [5]: 94% (24 h)
- % intact compound remaining after incubation, Rat plasma [6]: 100% (24 h)

Compound: CCCCCC(=O)N[C@H]1CSCc2cc(CSCCNC(=O)CN3CCN(CC(=O)O)CCN(CC(=O)O)CCN(CC(=O)O)CC3)cc(c2)CSC[C@@H](C(=O)O)NC(=O)[C@H](Cc2ccccc2)NC(=O)[C@H](CCC(N)=O)NC(=O)[C@H]([C@@H](C)O)NC(=O)[C@@H]2CCCN2C(=O)[C@@H]2CCCN2C1=O [3BP-3623, Hex-[Cys(tMeBn(InDOTA-AET))-Pro-Pro-Thr-Gln-Phe-Cys]-OH]
- % intact compound remaining after incubation, Human plasma [5]: 100% (24 h)
- % intact compound remaining after incubation, Rat plasma [6]: 100% (24 h)
- AUC(0-inf) ([8]; 4 nmol/kg): 0.0077 µM·h
- C0 ([8]; 4 nmol/kg): 17.6 nM
- clearance ([8]; 4 nmol/kg): 8.63 mL/min/kg
- half-life ([8]; 4 nmol/kg): 35 min
- Vd ([8]; 4 nmol/kg, Vss, 4 nmol/kg): 0.36 L/kg
- Vd ([8]; 4 nmol/kg, Vz): 0.44 L/kg
- AUC(0-inf) ([8]; 40 nmol/kg): 0.055 µM·h
- C0 ([8]; 40 nmol/kg): 228 nM
- clearance ([8]; 40 nmol/kg): 12 mL/min/kg
- half-life ([8]; 40 nmol/kg): 30 min
- Vd ([8]; 40 nmol/kg, Vss, 40 nmol/kg): 0.31 L/kg
- Vd ([8]; 40 nmol/kg, Vz): 0.53 L/kg
- AUC(0-inf) ([8]; 400 nmol/kg): 0.532 µM·h
- C0 ([8]; 400 nmol/kg): 2130 nM
- clearance ([8]; 400 nmol/kg): 12.5 mL/min/kg
- half-life ([8]; 400 nmol/kg): 35 min
- Vd ([8]; 400 nmol/kg, Vss, 400 nmol/kg): 0.2 L/kg
- Vd ([8]; 400 nmol/kg, Vz): 0.64 L/kg
- AUC(0-inf) ([9]; 40 nmol/kg): 0.074 µM·h
- C0 ([9]; 40 nmol/kg): 127 nM
- clearance ([9]; 40 nmol/kg): 9.02 mL/min/kg
- half-life ([9]; 40 nmol/kg): 45 min
- Vd ([9]; 40 nmol/kg, Vss, 40 nmol/kg): 0.48 L/kg
- Vd ([9]; 40 nmol/kg, Vz): 0.58 L/kg
- AUC(0-inf) ([9]; 400 nmol/kg): 0.738 µM·h
- C0 ([9]; 400 nmol/kg): 1410 nM
- clearance ([9]; 400 nmol/kg): 9.03 mL/min/kg
- half-life ([9]; 400 nmol/kg): 71 min
- Vd ([9]; 400 nmol/kg, Vz): 0.93 L/kg

Compound: CCCCCC(=O)N[C@H]1CSCc2cc(CSCCNC(=O)CN3CCN(CC(=O)O)CCN(CC(=O)O)CCN(CC(=O)O)CC3)cc(c2)CSC[C@@H](C(=O)O)NC(=O)[C@H](Cc2ccccc2)NC(=O)[C@H](CCC(N)=O)NC(=O)[C@H]([C@@H](C)O)NC(=O)[C@@H]2CCCN2C(=O)[C@@H]2CCCN2C1=O [^177Lu-3BP-3554, metal not drawn]
- body weight loss (HEK-FAP tumors): No treatment-related body weight loss
- body weight loss (BWL) (Sarc4809 PDX tumors): No treatment-related body weight loss
